Assay results published in US20240025884A1 (Dong-A ST Co., Ltd., priority 2022, published 2024).

Biological target: GCN2 (Homo sapiens (Human), UniProt Q9P2K8)
Test: GCN2 Biochemical Assay (TR-FRET, GFP-eIF2S1 substrate phosphorylation)
Details: read-out: IC50 (GCN2 Inhibitory Activity)
Experimental: Experimental Example 1: GCN2 Biochemical Assay
An inhibitory effect of the inventive compound on GCN2 was identified as follows.
384-well (Greiner #784075) (or 1536-well [Greiner #782075]) plates containing 60 nl (or 20 nl for 1536-well) of compound in 100% DMSO (10 concentrations serially diluted 3.16-fold) were prepared. Two copies of plates were used—one for the GCN2 assay and a second for an artifact plate. Working reagents were prepared as follows—reaction buffer: Tris pH 7.5 20 mM, MgCl2 5 mM, DTT 1 mM, Brij-35 0.005%, EGTA 0.5 mM in water; 2× enzyme solution: GCN2 (produced in-house) 1.6 nM in reaction buffer; 2× substrate solution: GFP-eIFS1 (Thermo Fisher Scientific, PV4809) 50 nM, ATP 0.2 mM, tRNA 0.4 mg/ml in reaction buffer; p-GFP-eIF2S1 (artifact) solution: p-GFP-eIFS1 (produced by incubation of 100 nM GFP-eIF2S1 in reaction buffer with 100 uM ATP and 1 nM PERK KD enzyme for 3 hr at room temperature) 2 nM in reaction buffer; 3× stop/antibody solution: p-GFP-EIF2S1 Th-Ab (Thermo Fisher Scientific, PV4816) 6 nM, AZ13933939 3 uM, BSA 3% in reaction buffer. Reagents were loaded onto a liquid dispenser (Certus FLEX, Trajan Scientific and Medical), and 3 ul (1 ul for 1536-well) of 2× enzyme solution, followed by 3 ul (1 ul for 1536-well) of 2× substrate solution was added to the plates. When small numbers of plates were processed, the enzyme solution was added first to all plates, then the valve used for the substrate solution was primed immediately prior to use. Plates were tapped or spun 1 min/1K/RT to ensure proper mixing, followed by incubation at room temperature for 70 mins, covered/stacked in the dark. For the artifact plate, 6 ul of p-GFP-eIF2S1 solution was added prior to adding the stop/antibody solution. 3 ul (1 ul for 1536-well) of 3× stop/antibody solution was added to the plates, followed by a spin-down for 1 min/1K/RT, and incubation for 2-3 hr, sealed or covered with lids in the dark at room temperature. Plates were read on a plate reader (PHERAstar FSX, BMF Labtech) at Ex 340/Em 490/Em 520 nm.

GCN2, sequence (Q9P2K8 whole entry): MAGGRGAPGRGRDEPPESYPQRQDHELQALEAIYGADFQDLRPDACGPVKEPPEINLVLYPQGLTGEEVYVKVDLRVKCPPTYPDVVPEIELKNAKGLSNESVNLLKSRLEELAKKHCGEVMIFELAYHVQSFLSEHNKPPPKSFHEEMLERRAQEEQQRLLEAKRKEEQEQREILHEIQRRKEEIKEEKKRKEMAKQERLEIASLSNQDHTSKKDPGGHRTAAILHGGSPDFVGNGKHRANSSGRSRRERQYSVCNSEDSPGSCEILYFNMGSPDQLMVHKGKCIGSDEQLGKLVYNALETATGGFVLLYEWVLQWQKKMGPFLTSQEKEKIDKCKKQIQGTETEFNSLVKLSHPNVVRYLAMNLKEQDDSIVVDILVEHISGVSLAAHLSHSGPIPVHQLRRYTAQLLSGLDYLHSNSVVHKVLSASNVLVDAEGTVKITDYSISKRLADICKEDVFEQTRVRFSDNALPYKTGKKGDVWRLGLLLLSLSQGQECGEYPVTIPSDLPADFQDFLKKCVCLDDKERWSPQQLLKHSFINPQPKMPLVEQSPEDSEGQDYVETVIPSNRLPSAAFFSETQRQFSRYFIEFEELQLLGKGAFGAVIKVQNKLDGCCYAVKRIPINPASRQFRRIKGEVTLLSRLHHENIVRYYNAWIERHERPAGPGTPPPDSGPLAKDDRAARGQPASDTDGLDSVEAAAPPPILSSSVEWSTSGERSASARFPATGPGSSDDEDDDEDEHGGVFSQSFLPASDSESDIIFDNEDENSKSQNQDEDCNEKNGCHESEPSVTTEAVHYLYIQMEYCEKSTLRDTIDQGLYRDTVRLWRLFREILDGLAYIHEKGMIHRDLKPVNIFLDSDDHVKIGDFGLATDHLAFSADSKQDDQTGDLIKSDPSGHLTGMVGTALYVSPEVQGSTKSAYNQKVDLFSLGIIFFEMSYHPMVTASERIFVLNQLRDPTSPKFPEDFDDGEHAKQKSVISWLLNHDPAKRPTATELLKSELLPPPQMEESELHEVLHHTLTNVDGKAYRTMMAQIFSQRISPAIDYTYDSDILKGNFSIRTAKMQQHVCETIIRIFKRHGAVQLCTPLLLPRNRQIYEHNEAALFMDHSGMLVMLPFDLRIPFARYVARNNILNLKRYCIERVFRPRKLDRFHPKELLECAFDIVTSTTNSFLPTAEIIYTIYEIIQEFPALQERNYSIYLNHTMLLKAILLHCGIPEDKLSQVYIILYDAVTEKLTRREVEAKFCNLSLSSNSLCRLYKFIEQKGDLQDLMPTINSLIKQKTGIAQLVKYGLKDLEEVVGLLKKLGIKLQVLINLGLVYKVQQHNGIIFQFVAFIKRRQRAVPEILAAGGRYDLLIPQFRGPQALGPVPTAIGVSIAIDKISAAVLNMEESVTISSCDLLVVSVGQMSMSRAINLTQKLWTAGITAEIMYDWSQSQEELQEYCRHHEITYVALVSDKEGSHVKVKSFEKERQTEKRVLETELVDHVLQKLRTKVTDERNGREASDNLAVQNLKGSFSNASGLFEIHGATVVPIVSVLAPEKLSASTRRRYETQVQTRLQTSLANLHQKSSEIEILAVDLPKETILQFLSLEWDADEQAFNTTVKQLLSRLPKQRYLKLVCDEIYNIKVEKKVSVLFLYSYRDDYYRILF

| SMILES | IC50 [nM] |
| --- | --- |
| Cc1cnc(Nc2cc(C)n(C)n2)nc1-c1c[nH]c2c(NC(=O)CN3CCC(CC#N)C3)cccc12 (stereo not drawn) [Example 45, 2-(3-(cyanomethyl)pyrrolidin-1-yl)-N-(3-(2-((1,5-dimethyl-1H-pyrazol-3-yl)amino)-5-methylpyrimidin-4-yl)-1H-indol-7-yl)acetamide] | 100 to 1000 |
| Cc1cnc(Nc2cc(C)n(C)n2)nc1-c1c[nH]c2c(NC(=O)CN3CC[C@H](CC#N)C3)cccc12 [Example 46, (R)-2-(3-(cyanomethyl)pyrrolidin-1-yl)-N-(3-(2-((1,5-dimethyl-1H-pyrazol-3-yl)amino)-5-methylpyrimidin-4-yl)-1H-indol-7-yl)acetamide] | 100 to 1000 |
| Cc1cnc(Nc2cc(C)n(C)n2)nc1-c1c[nH]c2c(NC(=O)CN3CC[C@H](Nc4ccncn4)C3)cccc12 [Example 47, (S)-N-(3-(2-((1,5-dimethyl-1H-pyrazol-3-yl)amino)-5-methylpyrimidin-4-yl)-1H-indol-7-yl)-2-(3-(pyrimidin-4-ylamino)pyrrolidin-1-yl)acetamide] | 10 to 100 |
| Cc1cnc(Nc2cc(C)n(C)n2)nc1-c1c[nH]c2c(NC(=O)CN3CC[C@@H](Nc4ccncn4)C3)cccc12 [Example 48, (R)-N-(3-(2-((1,5-dimethyl-1H-pyrazol-3-yl)amino)-5-methylpyrimidin-4-yl)-1H-indol-7-yl)-2-(3-(pyrimidin-4-ylamino)pyrrolidin-1-yl)acetamide] | 10 to 100 |
| Cc1cnc(Nc2cc(C)n(C)n2)nc1-c1c[nH]c2c(NC(=O)CN3CC[C@@H](Nc4ccncc4)C3)cccc12 [Example 49, (R)-N-(3-(2-((1,5-dimethyl-1H-pyrazol-3-yl)amino)-5-methylpyrimidin-4-yl)-1H-indol-7-yl)-2-(3-(pyridin-4-ylamino)pyrrolidin-1-yl)acetamide] | 10 to 100 |
| Cc1cnc(Nc2cc(C)n(C)n2)nc1-c1c[nH]c2c(NC(=O)CN3C[C@@H](F)[C@@H](O)C3)cccc12 [Example 50, N-(3-(2-((1,5-dimethyl-1H-pyrazol-3-yl)amino)-5-methylpyrimidin-4-yl)-1H-indol-7-yl)-2-((3R,4S)-3-fluoro-4-hydroxypyrrolidin-1-yl)acetamide] | 10 to 100 |
| Cc1cnc(Nc2cc(C)n(C)n2)nc1-c1c[nH]c2c(NC(=O)CN3C[C@@H](F)[C@H](Oc4ccncc4)C3)cccc12 [Example 51, N-(3-(2-((1,5-dimethyl-1H-pyrazol-3-yl)amino)-5-methylpyrimidin-4-yl)-1H-indol-7-yl)-2-((3R,4R)-3-fluoro-4-(pyridin-4-yloxy)pyrrolidin-1-yl)acetamide] | 10 to 100 |
| Cc1cnc(Nc2cc(C)n(C)n2)nc1-c1c[nH]c2c(NC(=O)CN3C[C@H](F)[C@H](Oc4ccnc(NC5CC5)n4)C3)cccc12 [Example 52, 2-((3R,4S)-3-((2-(cyclopropylamino)pyrimidin-4-yl)oxy)-4-fluoropyrrolidin-1-yl)-N-(3-(2-((1,5-dimethyl-1H-pyrazol-3-yl)amino)-5-methylpyrimidin-4-yl)-1H-indol-7-yl)acetamide] | < 10 |
| Cc1cnc(Nc2cc(C)n(C)n2)nc1-c1c[nH]c2c(NC(=O)CN3C[C@@H](F)[C@H](Oc4ccnc(NC5CC5)n4)C3)cccc12 [Example 53, 2-((3R,4R)-3-((2-(cyclopropylamino)pyrimidin-4-yl)oxy)-4-fluoropyrrolidin-1-yl)-N-(3-(2-((1,5-dimethyl-1H-pyrazol-3-yl)amino)-5-methylpyrimidin-4-yl)-1H-indol-7-yl)acetamide] | < 10 |
| Cc1cnc(Nc2cc(C)n(C)n2)nc1-c1c[nH]c2c(NC(=O)CN3C[C@@H](F)[C@@H](Oc4ccnc(NC5CC5)n4)C3)cccc12 [Example 54, 2-((3S,4R)-3-((2-(cyclopropylamino)pyrimidin-4-yl)oxy)-4-fluoropyrrolidin-1-yl)-N-(3-(2-((1,5-dimethyl-1H-pyrazol-3-yl)amino)-5-methylpyrimidin-4-yl)-1H-indol-7-yl)acetamide] | 10 to 100 |
| COC(=O)[C@@H]1C[C@H](Oc2ccnc(NC3CC3)n2)CN1CC(=O)Nc1cccc2c(-c3nc(Nc4cc(C)n(C)n4)ncc3C)c[nH]c12 [Example 55, methyl (2S,4S)-4-((2-(cyclopropylamino)pyrimidin-4-yl)oxy)-1-(2-((3-(2-((1,5-dimethyl-1H-pyrazol-3-yl)amino)-5-methylpyrimidin-4-yl)-1H-indol-7-yl)amino)-2-oxoethyl)pyrrolidine-2-carboxylate] | < 10 |
| Cc1cnc(Nc2cc(C)n(C)n2)nc1-c1c[nH]c2c(NC(=O)CN3C[C@@H](Oc4ccnc(NC5CC5)n4)C[C@H]3C(=O)O)cccc12 [Example 56, (2S,4S)-4-((2-(cyclopropylamino)pyrimidin-4-yl)oxy)-1-(2-((3-(2-((1,5-dimethyl-1H-pyrazol-3-yl)amino)-5-methylpyrimidin-4-yl)-1H-indol-7-yl)amino)-2-oxoethyl)pyrrolidine-2-carboxylic acid] | 10 to 100 |
| Cc1cnc(Nc2cc(C)n(C)n2)nc1-c1c[nH]c2c(NC(=O)CN3C[C@@H](Oc4ccnc(NC5CC5)n4)C[C@H]3CO)cccc12 [Example 57, 2-((2S,4S)-4-((2-(cyclopropylamino)pyrimidin-4-yl)oxy)-2-(hydroxymethyl)pyrrolidin-1-yl)-N-(3-(2-((1,5-dimethyl-1H-pyrazol-3-yl)amino)-5-methylpyrimidin-4-yl)-1H-indol-7-yl)acetamide] | < 10 |
| Cc1cnc(Nc2cc(C)n(C)n2)nc1-c1c[nH]c2c(NC(=O)CN3C[C@@H](Oc4ccnc(NC5CC5)n4)C[C@H]3C(N)=O)cccc12 [Example 58, (2S,4S)-4-((2-(cyclopropylamino)pyrimidin-4-yl)oxy)-1-(2-((3-(2-((1,5-dimethyl-1H-pyrazol-3-yl)amino)-5-methylpyrimidin-4-yl)-1H-indol-7-yl)amino)-2-oxoethyl)pyrrolidine-2-carboxamide] | < 10 |
| Cc1cnc(Nc2cc(C)n(C)n2)nc1-c1c[nH]c2c(NC(=O)CN3C[C@@H](Oc4ccnc(NC5CC5)n4)C[C@H]3CN)cccc12 [Example 59, 2-((2S,4S)-2-(aminomethyl)-4-((2-(cyclopropylamino)pyrimidin-4-yl)oxy)pyrrolidin-1-yl)-N-(3-(2-((1,5-dimethyl-1H-pyrazol-3-yl)amino)-5-methylpyrimidin-4-yl)-1H-indol-7-yl)acetamide] | < 10 |
| Cc1cnc(Nc2cc(C)n(C)n2)nc1-c1c[nH]c2c(NC(=O)CN3CC[C@H](Oc4ccnc(NC5CC5)n4)C3=O)cccc12 [Example 60, (S)-2-(3-((2-(cyclopropylamino)pyrimidin-4-yl)oxy)-2-oxopyrrolidin-1-yl)-N-(3-(2-((1,5-dimethyl-1H-pyrazol-3-yl)amino)-5-methylpyrimidin-4-yl)-1H-indol-7-yl)acetamide] | 10 to 100 |
| Cc1cnc(Nc2cc(C)n(C)n2)nc1-c1c[nH]c2c(NC(=O)CN3C[C@@H](Oc4ccnc(NC5CC5)n4)CC3=O)cccc12 [Example 61, (S)-2-(4-((2-(cyclopropylamino)pyrimidin-4-yl)oxy)-2-oxopyrrolidin-1-yl)-N-(3-(2-((1,5-dimethyl-1H-pyrazol-3-yl)amino)-5-methylpyrimidin-4-yl)-1H-indol-7-yl)acetamide] | < 10 |
| Cc1cnc(Nc2cc(C)n(C)n2)nc1-c1c[nH]c2c(NC(=O)CN3CC[C@H](C(=O)N4CCNC(=O)C4)C3)cccc12 [Example 62, (S)-N-(3-(2-((1,5-dimethyl-1H-pyrazol-3-yl)amino)-5-methylpyrimidin-4-yl)-1H-indol-7-yl)-2-(3-(3-oxopiperazine-1-carbonyl)pyrrolidin-1-yl)acetamide] | 100 to 1000 |
